# Reference: publication PMC11873125 (Scientific Reports, 2025)
# “Also recorded” adds a separate entry of the source.
# Experiments:
# [1] = system: LMNB1 in TRE-FLAG-LMNB1 MEF; experiment: Primary HCS assay, LMNB1 intensity, dose-response; assay type: cell-based, mouse; settings: DOX medium, 48 h, ten-point dose-response
# LMNB1 = settings: cited from earlier work
# TRE-FLAG-LMNB1 MEF = experiment: Primary HCS assay, cell numbers; assay type: cell-based, mouse; settings: 48 h
# [2] = system: LMNA/C in TRE-FLAG-LMNB1 MEF; experiment: Primary HCS assay, LMNA/C intensity; assay type: cell-based, mouse; settings: 48 h
# [3] = system: LMNB1 in TRE-FLAG-LMNB1 MEF; experiment: Western blot of LMNB1 in TRE-FLAG-LMNB1 MEF; assay type: cell-based, mouse; settings: 48 h, LMNB1/actin
# LMNB in HL-60 cells = settings: cited from earlier work
# ADLD patient fibroblasts = experiment: Antiproliferative activity and expanded toxicity measurements; assay type: cell-based, human; settings: high density, two-day exposure
# [4] = Solubility observation during SAR testing; assay type: physicochemical
SMILES,Effect on LMNB1 levels in dose-response (in words) [1],Cellular toxicity (in words) (TRE-FLAG-LMNB1 MEF),other results
CCOc1ccccc1C1CC(c2ccccc2)Nc2nc(N)nn21 (stereo not shown) [CID 3512343],retained some activity,,
CCOc1ccc(N([C@@H](C)C(=O)Nc2ccc(Br)c(C)c2)S(C)(=O)=O)cc1 [UPCMLDCBRC1002139],not tolerated,,
COc1ccc(C2CC(c3ccc(Cl)cc3Cl)Nc3nc(N)nn32)cc1OC (stereo not shown) [CID 3154587],inactive,,
COc1ccc(C2CC(c3ccccc3Cl)Nc3nc(N)nn32)cc1OC (stereo not shown) [CID 3154585],limited response at the highest concentration tested,,
Cc1c(CNC(=O)c2nn3c(c2Cl)N[C@@H](c2ccccc2)C[C@@H]3C(F)(F)F)cnn1C [UPCMLDCBRC1040264],abolished activity,,
CO[C@H]1/C=C\C=C(/C)C(=O)NC2=CC(=O)C(NCCN(C)C)=C(C[C@@H](C)C[C@H](OC)[C@H](O)[C@@H](C)/C=C(\C)[C@@H]1OC(N)=O)C2=O [alvespimycin],,significant cellular toxicity,Effect on LMNB1 (in words) (LMNB1): reduced LMNB1
COc1ccccc1NC(=S)N[C@@H](NC(=O)c1cccc(Br)c1)C(Cl)(Cl)Cl [UPCMLDCBRC1049772],abolished activity,,
Oc1c2ccccc2c2c3c(cccc13)N=N2 [SP600125],dose-dependent decreases in LMNB1 levels; also recorded: maximum response with SP600125 was small and the curve not sigmoidal,no or low toxicity,"Effect on LMNA/C expression, selectivity (in words) [2]: selectively reduced LMNB1 over LMNA/C; Confirmation of LMNB1 reduction by Western blot (in words) [3]: did not confirm"
"CC[C@@]1(O)C(=O)OCc2c1cc1n(c2=O)Cc2cc3ccccc3nc2-1 [camptothecin, (S)-( +)-camptothecin]",dose-dependent decreases in LMNB1 levels,cellular toxicity,"Effect on LMNB levels (in words) (LMNB in HL-60 cells): reduce LMNB levels in HL-60 cells; Effect on cell numbers, nuclear morphology and cell size (in words) (ADLD patient fibroblasts): reduced cell numbers and caused cells to enlarge"
Oc1ccc(-c2nc(-c3ccncc3)c(-c3ccc(F)cc3)[nH]2)cc1 [SB202190],dose-dependent decreases in LMNB1 levels,no or low toxicity,"Effect on LMNA/C expression, selectivity (in words) [2]: selectively reduced LMNB1 over LMNA/C; Confirmation of LMNB1 reduction by Western blot (in words) [3]: concentration-dependently reduced both human-FLAG-LMNB1 and endogenous mouse LMNB1"
O=C(NCc1ccco1)c1cc2nc(-c3ccc4c(c3)OCO4)cc(C(F)(F)F)n2n1 [MolPort-001–493–770],"very strong reduction of LMNB1, which was an artifact of image analysis",,
COc1cccc(C2CC(c3ccccc3Cl)Nc3ncnn32)c1 (stereo not shown) [CID 663139],,,Solubility (in words) [4]: caused solubility problems
